The source of these data is paper PMC2724550, “Citrus auraptene suppresses cyclin D1 and significantly delays N-methyl nitrosourea induced mammary carcinogenesis in female Sprague-Dawley rats” (BMC Cancer, 2009).

The structures appear in SMILES notation.

In series [1] the test system is MDA-MB-231 cells. Nature of the series: MDA-MB-231 cell proliferation assay (MTT). It counts as cell-based, human. How it is done:
The human breast carcinoma cell line MDA-MB-231 was obtained from ATCC (Manassas, VA) and grown in a sterile humidified environment at 37°C and 5% CO2: 95% air with complete DMEM media. The proliferation study was done by MTT assay which uses a tetrazolium compound [3-(4, 5-dimethylthiazol-2-yl)-2,5-diphenyltetrazolium bromide; MTT], which is converted into a formazan product by living cells. The MDA-MB-231 cells were plated in a 96 well plate at 12,500 cells/well at a confluency of 40%. The serum containing media was replaced with serum free media 5 hrs before treatment. The cells were then treated with auraptene at 1 – 50 μM auraptene in DMSO (0.1%, v/v). The control cells received vehicle only (DMSO, 0.1% v/v). After 24 hrs of treatment the cells were treated with MTT for 2 h and the absorbance was measured at 540 nm.
Figure 2 Effects of auraptene on human breast carcinoma cells. (A) Effects of auraptene on MDA-MB-231 cell proliferation. Cells were serum starved for 5 h and then treated with 1–50 μM auraptene in […]. Cell proliferation was assessed using the MTT reagent. Figures represent % vehicle control (means ± S.E.) # Replicates = 2 plates at 6 wells each for the treatment groups and 12 wells for the control group (* statistically different from control group, p < 0.05, One-way ANOVA, Tukey test). (B) Effects of auraptene on MCF-7 cell proliferation. Cells were serum starved for 24 h. At 22 h after serum starvation the cells were treated with 1–50 μM auraptene in […]. At 24 h serum starvation, the cells were treated with IGF-1 (10 ng/mL). Cell proliferation was assessed using the MTS reagent. Figures represent % vehicle control (mean± S.E.) # Replicates = 2 plates at 6 wells each for the treatment groups. (* statistically different from IGF-1 group, p < 0.05, One-way ANOVA, Tukey test). (C) Effects of auraptene on IGF-1 induced cyclin D1 expression. MCF-7 cells were serum starved for 24 h. At 22 h after serum starvation the cells were treated with10 μM auraptene in […]. At 24 h serum starvation the cells were treated with IGF-1 (10 ng/mL). The cells were harvested at the 15, 30 minutes and at 1 h, 2 h, 4 h, 8 h and 24 h. The cell lysates were probed for cyclin D1. […] The lower band (36 KD) is cyclin D1 and the upper band is β-actin (43 KD).

The nature of series [2]: Tissue extraction and HPLC-fluorescence analysis of auraptene in rat tissues. It counts as in vivo, female Sprague-Dawley rats. Conditions: for average concentration in normal mammary glands: means ± S.E. Here is the method:
The concentration of auraptene was measured in mammary glands, livers and tumors of rats. The specimens from the animals were weighed and minced on a glass plate kept on ice. The minced sample was added to 0.05 M Tris buffer, pH 7.4, containing 0.25 M sucrose in 1 ml. To 1 ml of this homogenized sample, 80 μL of 100 μM curcumin was added as internal standard followed by vortexing. The sample was then extracted twice with ethyl acetate: acetone (2:1 v/v). The combined supernatant was then dried under N2 gas, resuspended in 1 mL 70% methanol/H2O and analyzed by HPLC (Shimadzu, SIL-10AF) with UV (254 nm) and fluorescence detection (Shimadzu, RF-535) at excitation and emission wavelengths of 329 nm and 390 nm respectively. The flow rate in HPLC was 1 ml/min with C18*5μ column. The mobile phase started with 80% methanol in water up to 20 minutes and was increased in a linear gradient up to 100% methanol over the next 5 minutes. Under these conditions, auraptene eluted at 14 minutes and curcumin at 6 minutes. The ratio of area under the curve for auraptene at different concentrations to that of curcumin was plotted to make the standard curve. The concentration of auraptene in the specimens was calculated from the standard curve. For the calculation of concentration, 1 gm of the tissue was assumed to occupy a volume of 1 ml.
Figure 6 Concentrations of auraptene in rat tissues from the tumor study. The rat mammary glands, tumors and livers were weighed and homogenized. To the homogenate 80 μL of 100 μM curcumin was added as internal standard and extracted twice with ethyl acetate: acetone mixture (2:1 v/v). The extract was dried and resuspended in 1 mL 70% methanol/H2O and analyzed by HPLC (Shimadzu, SIL-10AF) with UV (254 nm) and fluorescence detection (Shimadzu, RF-535) at excitation and emission wavelengths of 329 nm and 390 nm respectively.

Turning to `CC(C)=CCC/C(C)=C/COc1ccc2ccc(=O)oc2c1` [auraptene], in series [1] (10 μM auraptene, 24 hrs, MTT), the “reduction in MDA-MB-231 cell proliferation” value was “about 23%”. The “suppression of MDA-MB-231 cell proliferation” value was 85% in series [1] (25 μM auraptene, 24 hrs, MTT) and “did not achieve any higher suppression of cell proliferation” in series [1] (50 μM auraptene compared with 25 μM). For the same compound, the IC50 in series [1] (Homo sapiens, MDA-MB-231, 24 hrs treatment, serum free media, MTT, read-out: concentration suppressing MDA-MB-231 cell proliferation by 50%) was 12 µM. Also, the results for the “average concentration in normal mammary glands” value in series [2] (200 ppm in diet) and in series [2] (500 ppm in diet) were 1.4 ± 0.5 µM and 1.8 ± 0.3 µM, respectively. In series [2] (500 ppm in diet, mean, n = 2), this compound yielded an average concentration in livers of 0.87 µM.
